Laboratory results published in patent publication US20260001898A1, “Heteroaryl compounds as inhibitors of TYK2/JAK1, composition and application thereof” (Accro Bioscience (HK) Limited, priority 2022, published 2026).

What was measured:
[1] = tested on: JAK1/JAK2 pathway; experiment: Western blot p-STAT1/STAT1 in IFN-γ-stimulated HT-29 cells; format: cell-based; settings: IFN-γ 100 ng/mL
Procedure: HT-29 cells were digested by trypsin and suspended in Dulbecco's Modified Eagle Medium (DMEM) and counted. The tested compounds were added into the 6 well plates (400 000/per well). After 2 hours, IFN-γ (100 ng/mL) was added to stimulate cells for 30 minutes. The cells were collected and lysed with protein lysate. The protein was quantitatively tested by BCA kit. Finally, p-STAT1/STAT1 and internal reference protein β-actin were detected by Western blot.

[2] = tested on: JAK1 JH2 and TYK2 JH2 versus JAK1 JH1, JAK2 JH1, JAK3 JH1 and TYK2 JH1; experiment: Competitive binding assay, selectivity JH2 versus JH1 domains
Procedure: For most assays, kinase-tagged T7 phage strains were prepared in an E. coli host derived from the BL21 strain. E. coli were grown to log-phase and infected with T7 phage and incubated with shaking at 32° C. until lysis. The lysates were centrifuged and filtered to remove cell debris. The remaining kinases were produced in HEK-293 cells and subsequently tagged with DNA for qPCR detection. Streptavidin coated magnetic beads were treated with biotinylated small molecule ligands for 30 minutes at room temperature to generate affinity resins for kinase assays. The liganded beads were blocked with excess biotin and washed with blocking buffer (SeaBlock (Pierce), 1% BSA, 0.05% Tween 20, 1 mM DTT) to remove unbound ligand and to reduce non-specific binding. […] Test compounds were prepared as 111X stocks in 100% DMSO. Dissociation constants (Kds) were determined using an 11-point 3-fold compound dilution series with three DMSO control points. […] The compounds were then diluted directly into the assays such that the final concentration of DMSO was 0.9%. […] The kinase concentration in the eluates was measured by qPCR.
An 11-point 3-fold serial dilution of each test compound was prepared in 100% DMSO at 100× final test concentration and subsequently diluted to 1× in the assay (final DMSO concentration=1%). Most Kds were determined using a compound top concentration=30,000 nM. […]

[3] = tested on: IFNα induced TYK2/JAK1 mediated STAT activation; experiment: Luciferase assay in L929 ISRE cells stimulated with IFN-α; format: cell-based; settings: IFN-α 100 ng/mL
Procedure: • 1. L929 ISRE cells (5000 cells/well) were seeded on 96-well plates and incubated overnight at room temperature-; • 2. The cells were pretreated by adding different concentrations (10 nM, 50 nM, 100 nM, 200 nM or 1000 nM) of the test compounds for 2 hours; • 3. Added IFN-α (100 ng/mL) to stimulate cells for 6 hours; • 4. Removed the upper medium, add PBS (100 μL) and washed, then removed PBS; • 5. Added PLB lysis solution (50 μL) to each well, shook the well for 15 minutes; • 6. Transferred PLB lysis solution (30 μL) to a new 96-well whiteboard, added LAR II reagent (LAR II), then quickly read the 450 nm OD value with a plate washer; • 7. Added Stop & Glo reagent (30 μL), then read the 450 nm OD value using the plate washer. • 8. The final result was the OD value in step 6/OD value in step 7.

[4] = tested on: IFNα induced CXCL-10 in PBMC; experiment: ELISA of IFNα induced CXCL-10 in PBMC; format: cell-based; settings: for IC50: IFNα induced CXCL-10 in PBMC
Procedure: • 1. Soak plate: Add 300 μL 1× washing solution and let stand for 30 seconds. After discarding the washing solution, anhydrous the microporous plate on absorbent paper. • 2. Add standard: Add 100 μL of 2-fold standard to standard well. Add 100 μL standard dilution (serum/plasma sample) or culture medium (cell culture supernatant sample) to blank well. • 3. Add sample: Serum/plasma: Add 50 μL 1× assay buffer and 50 μL sample to sample well. Cell culture supernatant: Add 100 μL cell culture supernatant to sample well. • 4. Add detection antibody: Add 50 μL diluted detection antibody (1:100 diluted) to each well. Make sure steps 4, 5 and 6 are added continuously without interruption. The sampling process was completed within 15 minutes. • 5. Incubation: Use sealing plate film to seal the plate. Shake at 300 rpm and incubate for 2 hours at room temperature. • 6. Washing: Discard the liquid, add 300 μL of washing solution and wash the plate 6 times. Pat anhydrous on blotting paper after each wash. To obtain the desired experimental performance, the residual liquid must be completely removed. • 7. Enzyme addition: Add 100 μL diluted horseradish peroxidase labeled streptavidin to each well (1:100 diluted). • 8. Incubation: Seal the plate with a new sealing film. Shake at 300 rpm and incubate at room temperature for 45 minutes. • 9. Washing: Repeat […]. • 10. Add substrate for color development: Add 100 μL of color development substrate TMB to each well, keep away from light, and incubate at room temperature for 5-30 minutes. • 11. Add Stop Solution: Add 100 μL stop solution to each well. The color changed from blue to yellow. If the color appears green or the color changes unevenly, gently tap the frame of the plate to mix well. • 12. Assay readout: Within 30 minutes, perform dual wavelength detection using a microplate reader to measure the OD at the absorption maximum at 450 nm and reference wavelengths at 570 nm or 630 nm. The calibrated OD value is the measured value at 450 nm minus the measured value at 570 nm or 630 nm.

[5] = biological target: TYK2 JH2 (Homo sapiens (Human), UniProt P29597); experiment: Competitive binding assay
Procedure: (§1) For most assays, kinase-tagged T7 phage strains were prepared in an E. coli host derived from the BL21 strain. E. coli were grown to log-phase and infected with T7 phage and incubated with shaking at 32° C. until lysis. The lysates were centrifuged and filtered to remove cell debris. The remaining kinases were produced in HEK-293 cells and subsequently tagged with DNA for qPCR detection. Streptavidin coated magnetic beads were treated with biotinylated small molecule ligands for 30 minutes at room temperature to generate affinity resins for kinase assays. The liganded beads were blocked with excess biotin and washed with blocking buffer (SeaBlock (Pierce), 1% BSA, 0.05% Tween 20, 1 mM DTT) to remove unbound ligand and to reduce non-specific binding. […] Test compounds were prepared as 111X stocks in 100% DMSO. Dissociation constants (Kds) were determined using an 11-point 3-fold compound dilution series with three DMSO control points. […] The compounds were then diluted directly into the assays such that the final concentration of DMSO was 0.9%. All reactions performed in polypropylene 384-well plate. Each was a final volume of 0.02 ml. […] The beads were then re-suspended in elution buffer (1×PBS, 0.05% Tween 20, 0.5 μM nonbiotinylated affinity ligand) and incubated at room temperature with shaking for 30 minutes. The kinase concentration in the eluates was measured by qPCR.
(§2) An 11-point 3-fold serial dilution of each test compound was prepared in 100% DMSO at 100× final test concentration and subsequently diluted to 1× in the assay (final DMSO concentration=1%). Most Kds were determined using a compound top concentration=30,000 nM. If the initial Kd determined was <0.5 nM (the lowest concentration tested), the measurement was repeated with a serial dilution starting at a lower top concentration.
(§3) Binding constants (Kds) were calculated with a standard dose-response curve using the Hill equation: […]
(§4) The Hill Slope was set to −1.
(§5) Curves were fitted using a non-linear least square fit with the Levenberg-Marquardt algorithm.

[6] = biological target: JAK3 JH1 (Homo sapiens (Human), UniProt P52333); experiment: Competitive binding assay
Procedure: as §1, §2, §3, §4, §5

[7] = biological target: TYK2 JH1 (Homo sapiens (Human), UniProt P29597); experiment: Competitive binding assay
Procedure: as §1, §2, §3, §4, §5

[8] = biological target: JAK1 JH2 (Homo sapiens (Human), UniProt P23458); experiment: Competitive binding assay
Procedure: as §1, §2, §3, §4, §5

[9] = biological target: JAK2 JH1 (Homo sapiens (Human), UniProt O60674); experiment: Competitive binding assay
Procedure: as §1, §2, §3, §4, §5

[10] = biological target: JAK1 JH1 (Homo sapiens (Human), UniProt P23458); experiment: Competitive binding assay
Procedure: as §1, §2, §3, §4, §5

[11] = tested on: JAK2 and TYK2; settings: some studies, background; cited from earlier work
[12] = tested on: JAK2/JAK2 pathway; experiment: Western blot p-STAT3/STAT3 in TPO-stimulated HEL cells; format: cell-based; settings: TPO 100 ng/mL
Procedure: HEL cells were digested by trypsin, re-suspended in 1640 medium and counted. The compounds to be measured were added to 6 well plates (1 million/per well) for 2 hours, and then thrombopoietin (TPO)(final concentration: 100 ng/mL) was added to stimulate cells for 30 minutes. The cells were collected and lysed with protein lysate. The protein was quantitatively tested by bicinchoninic acid (BCA) kit. Finally, p-STAT3/STAT3 and internal reference protein β-actin were detected by Western blot.

Chain of TYK2 JH2 (P29597 589-875): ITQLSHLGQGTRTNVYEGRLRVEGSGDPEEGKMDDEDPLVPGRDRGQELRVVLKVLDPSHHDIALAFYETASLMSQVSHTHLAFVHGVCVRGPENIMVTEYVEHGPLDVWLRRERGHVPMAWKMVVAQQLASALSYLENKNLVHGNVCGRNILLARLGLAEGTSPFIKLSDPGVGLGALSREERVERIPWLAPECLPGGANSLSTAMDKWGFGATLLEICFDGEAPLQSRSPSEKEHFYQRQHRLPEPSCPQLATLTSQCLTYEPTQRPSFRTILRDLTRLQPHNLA
Chain of JAK1 JH1 (P23458 875-1153): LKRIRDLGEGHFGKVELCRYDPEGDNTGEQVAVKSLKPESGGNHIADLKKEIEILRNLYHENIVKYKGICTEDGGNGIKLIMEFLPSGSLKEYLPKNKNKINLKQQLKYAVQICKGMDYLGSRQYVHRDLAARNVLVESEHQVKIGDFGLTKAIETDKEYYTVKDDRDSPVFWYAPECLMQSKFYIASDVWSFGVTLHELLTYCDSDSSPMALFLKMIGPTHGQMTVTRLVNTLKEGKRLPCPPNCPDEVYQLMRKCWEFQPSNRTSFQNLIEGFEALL
Chain of JAK2 JH1 (O60674 849-1124): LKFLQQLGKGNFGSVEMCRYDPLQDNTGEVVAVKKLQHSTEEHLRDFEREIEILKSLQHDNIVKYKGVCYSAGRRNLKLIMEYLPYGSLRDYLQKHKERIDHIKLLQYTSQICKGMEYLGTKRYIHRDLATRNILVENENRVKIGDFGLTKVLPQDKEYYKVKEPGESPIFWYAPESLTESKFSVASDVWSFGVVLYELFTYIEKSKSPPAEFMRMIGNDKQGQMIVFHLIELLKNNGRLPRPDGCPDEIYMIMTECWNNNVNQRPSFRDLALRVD
Chain of TYK2 JH1 (P29597 897-1176): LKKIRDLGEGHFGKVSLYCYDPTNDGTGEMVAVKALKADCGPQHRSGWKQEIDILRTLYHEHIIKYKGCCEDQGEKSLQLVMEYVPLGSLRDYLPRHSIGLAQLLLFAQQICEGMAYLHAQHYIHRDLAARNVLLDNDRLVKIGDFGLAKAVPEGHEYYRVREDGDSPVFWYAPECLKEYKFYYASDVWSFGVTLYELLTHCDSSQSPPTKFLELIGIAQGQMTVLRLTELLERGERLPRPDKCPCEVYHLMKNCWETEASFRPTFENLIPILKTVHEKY
Chain of JAK1 JH2 (P23458 583-855): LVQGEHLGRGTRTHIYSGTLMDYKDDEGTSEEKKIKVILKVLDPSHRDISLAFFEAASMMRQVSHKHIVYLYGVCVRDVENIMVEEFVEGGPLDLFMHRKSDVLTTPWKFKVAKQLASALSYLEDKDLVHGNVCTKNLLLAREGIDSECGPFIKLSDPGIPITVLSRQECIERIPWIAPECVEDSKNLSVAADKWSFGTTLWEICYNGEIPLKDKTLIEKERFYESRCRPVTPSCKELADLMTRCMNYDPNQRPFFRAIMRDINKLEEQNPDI
Chain of JAK3 JH1 (P52333 822-1111): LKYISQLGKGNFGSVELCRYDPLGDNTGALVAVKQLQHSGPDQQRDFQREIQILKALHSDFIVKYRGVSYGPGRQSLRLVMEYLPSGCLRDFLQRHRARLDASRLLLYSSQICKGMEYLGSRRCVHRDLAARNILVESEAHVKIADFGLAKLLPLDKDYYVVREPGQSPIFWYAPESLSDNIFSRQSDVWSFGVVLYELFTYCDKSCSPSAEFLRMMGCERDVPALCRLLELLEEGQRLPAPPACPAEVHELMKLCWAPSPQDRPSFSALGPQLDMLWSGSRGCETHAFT

COc1c(Nc2cc(NC(=O)C3CC3)nnc2C(N)=O)cccc1-c1cc(P(=O)(C2CC2)C2CC2)n(C)n1 [Compound A1, 6-(cyclopropanecarboxamido)-4-((3-(5-(dicyclopropylphosphoryl)-1-methyl-1H-pyrazol-3-yl)-2-methoxyphenyl)amino)pyridazine-3-carboxamide]
effect on downstream STAT1 phosphorylation induced by IFN-γ (JAK1/JAK2 pathway) [1]: inhibited JAK1/JAK2 pathway in a concentration-dependent manner
selectivity to bind JAK1 JH2 and TYK2 JH2 than JAK1 JH1, JAK2 JH1, JAK3 JH1 and TYK2 JH1 [2]: more than 10,000 times
inhibition at 0.05 µM ([3]; Mus musculus, 50 nM compound, read-out: Inhibitory activity % (50 nM)): 34%
inhibition at 0.2 µM ([3]; Mus musculus, 200 nM compound, read-out: Inhibitory activity % (200 nM)): 87%
inhibition at 1 µM ([3]; Mus musculus, 1000 nM compound, read-out: Inhibitory activity % (1000 nM)): 98%
inhibition of IFNα induced CXCL-10 in PBMC [4]: effectively inhibited IFNα induced CXCL-10 in PBMC
IC50 [4]: 6.3 nM
Kd [5]: 0.0044 ± 0.003 nM
affinity to TYK2 JH2 [5]: strong affinity
Kd [6]: 210 ± 15 nM
affinity to JAK3 JH1 [6]: weak affinity
Kd [7]: 550 ± 50 nM
affinity to TYK2 JH1 [7]: weak affinity
Kd [8]: 0.02 ± 0.002 nM
affinity to JAK1 JH2 [8]: strong affinity
Kd [9]: 790 ± 40 nM
affinity to JAK2 JH1 [9]: weak affinity
Kd [10]: 6900 ± 900 nM
affinity to JAK1 JH1 [10]: weak affinity

Cn1cc(Nc2nccc(N3C[C@H]4CC[C@@H](C3)N4C(=O)[C@@H]3CC3(F)F)n2)cn1 [PF-06700841]
ratio of JAK2 IC50/TYK2 IC50 [11]: about 3.3

BMS986165 [reference compound]
effect on downstream STAT1 phosphorylation induced by IFN-γ (JAK1/JAK2 pathway) [1]: had no effect on downstream STAT1 phosphorylation induced by IFN-γ
Inhibitory activity % (50 nM) ([3]; 50 nM compound): 62%
Inhibitory activity % (200 nM) ([3]; 200 nM compound): 94%
Inhibitory activity % (1000 nM) ([3]; 1000 nM compound): 99%
IC50 [4]: 16.6 nM
effect on TPO-induced downstream STAT3 phosphorylation (JAK2/JAK2 pathway) [12]: had no effect on TPO-induced downstream STAT3 phosphorylation
